Reference: patent publication USRE37781E1, “Substituted cyclic carbonyls and derivatives thereof useful as retroviral protease inhibitors” (DuPont Pharmaceuticals Company, priority 1991, dated 2002)
Where two headings read alike, the source gives them in different places.

Legend:
[1] = target: single-chain tethered dimer of HIV protease (Human immunodeficiency virus 1, UniProt P04585); assay: biochemical; format: biochemical; design: fused on or other part: A second copy of the same protease unit is joined to the first by a short peptide tether, giving one polypeptide
HIV-1 (RF) in MT-2 cells = assay: microbe, parasite or virus in culture; format: cell-based
Procedure, shortened: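 HIV-1 laboratory strains (RF, MN, IIIB) grown in H9 cells in RPMI 1640 with 5% FCS; infections in MT-2 cells. Viral RNA quantified by hybridization with biotinylated gag/pol capture probes on streptavidin plates and alkaline phosphatase-conjugated reporter probes; BH10 gag-pol in vitro transcripts serve as RNA standards.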

[2] = read-out: HPLC K1, Table 2d, class symbols
[3] = Human immunodeficiency virus 1, MT2, 48 h, Table 2d, class symbols, read-out: IC90
[4] = Table 2d, HIV protease inhibition, HPLC method, read-out: HPLC K1
[5] = read-out: HPLC K1, Table 2d, HIV protease inhibition, HPLC method
[6] = Human immunodeficiency virus 1, MT2, 48 h, Table 2d, HIV RNA assay, read-out: IC90
[7] = HIV protease inhibition, HPLC method, Table 2d, read-out: HPLC K1
[8] = HIV RNA assay, HIV-1 infected MT-2 cells, Table 2d

Structure (SMILES): NC(=O)COc1cccc(CN2C(=O)N(Cc3cccc(OCC(N)=O)c3)C(Cc3ccccc3)C(O)C(O)C2Cc2ccccc2)c1 (stereo not shown) [10H]
- Ki ([1]; Table 2d, class symbols, read-out: HPLC K1): < 10 nM
- IC90 (HIV-1 (RF) in MT-2 cells; Table 2d, class symbols): +++ (+++=<10 μg/mL)

Structure (SMILES): O=C1N(CCCCCCO)C(Cc2ccccc2)C(O)C(O)C(Cc2ccccc2)N1CC1CC1 (stereo not shown) [Example 12E]
- Ki [1, 2]: < 10 nM
- IC90 (HIV-1 (RF) in MT-2 cells; [3]): < 10 µg/mL

Structure (SMILES): O=C1N(Cc2ccc3oc(=O)[nH]c3c2)C(Cc2ccccc2)C(O)C(O)C(Cc2ccccc2)N1Cc1ccc2oc(=O)[nH]c2c1 (stereo not shown) [15DC]
- Ki [1, 4]: < 10 nM
- IC90 (HIV-1 (RF) in MT-2 cells; Table 2d, HIV RNA assay): +++ (+++=<10 μg/mL)

Structure (SMILES): O=C1N(Cc2ccccc2)[C@H](Cc2ccccc2)C[C@@H](O)[C@@H](Cc2ccccc2)N1Cc1ccccc1 [Example 7AN]
- Ki ([1]; read-out: HPLC Ki, Table 1d, lower part): < 10 nM
- Mass Spec M + H (class symbols printed in this column) (HIV-1 (RF) in MT-2 cells; Table 1d, lower part): +++ (+++=<10 μg/mL)

Structure (SMILES): CCCC(=O)c1cccc(CN2C(=O)N(Cc3cccc(C(=O)CCC)c3)C(Cc3ccc(F)cc3)C(O)C(O)C2Cc2ccc(F)cc2)c1 (stereo not shown) [20P]
- Ki ([1]; Table 2i, read-out: HPLC Ki): < 10 nM
- IC90 (HIV-1 (RF) in MT-2 cells; Table 2i): +++ (+++=<10 μg/mL)

Structure (SMILES): CNC(=O)NCCCCCN1C(=O)N(CCCCCNC(=O)NC)C(Cc2ccccc2)C(O)C(O)C1Cc1ccccc1 (stereo not shown) [15ES]
- Ki [1, 4]: 10 to 1000 nM
- IC90 (HIV-1 (RF) in MT-2 cells; Table 2d, HIV RNA assay): ++/+ (The ++/+ is used in the cases where an IC90 was determined to be >50 μg/mL)

Structure (SMILES): O=C1N(Cc2cccc(CO)c2)C(Cc2ccc(F)cc2)C(O)C(O)C(Cc2ccc(F)cc2)N1Cc1cccc(CO)c1 (stereo not shown) [20T]
- Ki ([1]; Table 2i, read-out: HPLC Ki): < 10 nM
- IC90 (HIV-1 (RF) in MT-2 cells; Table 2i): +++ (+++=<10 μg/mL)

Structure (SMILES): O=C(NCc1cccnc1)c1cccc(CN2C(=O)N(Cc3cccc(-c4cc[nH]n4)c3)C(Cc3ccccc3)C(O)C(O)C2Cc2ccccc2)c1 (stereo not shown) [Example 15BZ]
- Ki [1, 5]: < 10 nM
- IC90 (HIV-1 (RF) in MT-2 cells; [6]): < 10 µg/mL

Structure (SMILES): COC(=O)c1ccc(CN2C(=O)N(Cc3ccc(C(=O)OC)cc3)C(Cc3ccc(F)c(F)c3)C(O)C(O)C2Cc2ccc(F)c(F)c2)cc1 (stereo not shown) [20Z]
- Ki ([1]; Table 2i, read-out: HPLC Ki): 10 to 1000 nM
- IC90 (HIV-1 (RF) in MT-2 cells; Table 2i): +++ (+++=<10 μg/mL)

Structure (SMILES): O=S1(=O)N(CCCCCO)C(Cc2ccccc2)C(O)C(O)C(Cc2ccccc2)N1Cc1cccc(CO)c1 (stereo not shown) [23AH]
- Ki ([1]; Table 2m, read-out: HPLC Ki): < 10 nM
- IC90 (HIV-1 (RF) in MT-2 cells; Table 2m): +++ (+++=<10 μg/mL)

Structure (SMILES): Cl.O=C(OCc1ccc(CN2C(=O)N(Cc3ccc(COC(=O)c4ccc(CNCCO)cc4)cc3)[C@H](Cc3ccccc3)[C@H](O)[C@@H](O)[C@H]2Cc2ccccc2)cc1)c1ccc(CNCCO)cc1 [29W]
- Ki ([1]; Table 2s, read-out: Ki (HPLC)): 10 to 1000 nM
- IC90 (HIV-1 (RF) in MT-2 cells; Table 2s): +++ (+++=<10 μg/mL)

Structure (SMILES): O=C(NCCCCCN1C(=O)N(CCCCCNC(=O)c2cccc(F)c2)C(Cc2ccccc2)C(O)C(O)C1Cc1ccccc1)c1cccc(F)c1 (stereo not shown) [15EY]
- Ki [1, 7]: 10 to 1000 nM
- IC90 (HIV-1 (RF) in MT-2 cells; [8]): +++ (+++=<10 μg/mL)

Structure (SMILES): CNCc1cccc(CN2C(=O)N(Cc3cccc(CNC)c3)C(Cc3ccccc3)C(O)C(O)C2Cc2ccccc2)c1 (stereo not shown) [Example 15XC]
- Ki [1, 5]: 10 to 1000 nM
- IC90 (HIV-1 (RF) in MT-2 cells; [6]): < 10 µg/mL

Structure (SMILES): O=C1N(Cc2ccoc2)C(Cc2ccccc2)C(O)C(O)C(Cc2ccccc2)N1Cc1coc(CO)c1 (stereo not shown) [Example 15FR]
- Ki [1, 7]: < 10 nM
- IC90 (HIV-1 (RF) in MT-2 cells; [8]): +++ (+++=<10 μg/mL)

Structure (SMILES): COc1cccc(CC2C(O)C(O)C(Cc3cccc(OC)c3)N(CC3CC3)C(=O)N2CC2CC2)c1 (stereo not shown) [20AS]
- Ki ([1]; Table 2i, read-out: HPLC Ki): < 10 nM
- IC90 (HIV-1 (RF) in MT-2 cells; Table 2i): +++ (+++=<10 μg/mL)

Structure (SMILES): CCC(=NO)c1cccc(CN2C(=O)N(Cc3cccc(C(CC)=NO)c3)C(Cc3ccccc3)C(O)C(O)C2Cc2ccccc2)c1 (stereo not shown) [Example 15XP]
- Ki [1, 5]: < 10 nM
- IC90 (HIV-1 (RF) in MT-2 cells; [6]): < 10 µg/mL

Structure (SMILES): CN(C)P1(=O)N(Cc2ccc(CO)cc2)[C@H](Cc2ccccc2)[C@H](O)[C@@H](O)[C@@H](Cc2ccccc2)N1Cc1ccc(CO)cc1 (stereo partly shown) [28I]
- Ki ([1]; Table 2r, read-out: Ki HPLC): 10 to 1000 nM
- IC90 (HIV-1 (RF) in MT-2 cells; Table 2r): ++ (++=10 to 100 μg/mL)

Structure (SMILES): COc1cccc(CN2C(=S)N(Cc3cccc(OC)c3)C(Cc3ccccc3)C(O)C(O)C2Cc2ccccc2)c1 (stereo not shown) [Example 27G]
- Ki ([1]; Table 2q, read-out: HPLC Ki): < 10 nM
- IC90 (HIV-1 (RF) in MT-2 cells; Table 2q): +++ (+++=<10 μg/mL)

Structure (SMILES): CCNC(=O)c1cccc(CN2C(=O)N(Cc3cccc(C(=O)OC)c3)C(Cc3ccccc3)C(O)C(O)C2Cc2ccccc2)c1 (stereo not shown) [11U]
- Ki [1, 2]: < 10 nM
- IC90 (HIV-1 (RF) in MT-2 cells; [3]): < 10 µg/mL

Structure (SMILES): O=P1(Oc2ccccc2)N(CC2CC2)[C@H](Cc2ccccc2)[C@H](O)[C@@H](O)[C@@H](Cc2ccccc2)N1CC1CC1 (stereo partly shown) [28C]
- Ki ([1]; Table 2r, read-out: Ki HPLC): 10 to 1000 nM
- IC90 (HIV-1 (RF) in MT-2 cells; Table 2r): +++ (+++=<10 μg/mL)

Structure (SMILES): COCc1cccc(CN2C(Cc3ccccc3)C(O)C(O)C(Cc3ccccc3)N(Cc3cccc(COC)c3)S2(=O)=O)c1 (stereo not shown) [23P]
- Ki ([1]; Table 2m, read-out: HPLC Ki): 10 to 1000 nM
- IC90 (HIV-1 (RF) in MT-2 cells; Table 2m): ++ (++=10 to 100 μg/mL)

Structure (SMILES): O=S1(=O)N(Cc2cccc(CO)c2)C(Cc2ccccc2)C(O)C(O)C(Cc2ccccc2)N1Cc1cccc(CO)c1 (stereo not shown) [23N]
- Ki ([1]; Table 2m, read-out: HPLC Ki): < 10 nM
- IC90 (HIV-1 (RF) in MT-2 cells; Table 2m): +++ (+++=<10 μg/mL)

Structure (SMILES): C[Si](C)(C)CCOCn1ccnc1-c1cccc(CN2C(=O)N(Cc3cccc(-c4ncc[nH]4)c3)C(Cc3ccccc3)C(O)C(O)C2Cc2ccccc2)c1 (stereo not shown) [Example 15YK]
- Ki [1, 5]: 10 to 1000 nM
- IC90 (HIV-1 (RF) in MT-2 cells; [6]): < 10 µg/mL
